Results reported in patent publication US12012414B1, “Imidazo[1,5-a]pyrido[4,3-e]pyrimidines as CK2 inhibitors” (KING FAISAL UNIVERSITY, priority 2024, dated 2024).

Key:
[1] = test system: PC3 (prostate); assay: In vitro cytotoxic activity (MTT) assay, PC3; format: cell-based; conditions: Homo sapiens, PC-3; PC3 cells, exposed for 96 hours, 50% inhibition of cell proliferation; read-out: Cytotoxicity activity IC50, PC3 (prostate)
Experimental: (§1) Compounds 1-16 were screened for their in vitro cytotoxic activity utilizing a 3-(4,5-dimethyl-thiazol-2-yl)-2,5-diphenyltetrazolium bromide (MTT) assay against selected cancer human cell lines consisting of PC3 (prostate), HCT116 (colon), A375 (melanoma), H1299 (lung), MIAPaCa-2 (pancreas), HL60 (leukemia), MCF7 (breast), MDA-MB-231 (breast) (T. Mosmann, J. Immunol. Meth., 1983, 65, 55-63). The cells were cultured at 37° C. in RMPI1640 medium supplemented with 10% fetal bovine serum, 50 IU/mL penicillin, and 50 μg/mL streptomycin in a 5% CO2 incubator. All cells were sub-cultured 3 times/week by trypsinisation. Viable cells were seeded and allowed to adhere for 12 hours before a test drug was added in 96-well plates at an initial density of 1.0×10^5 cells/mL. Tumor cell lines were separately exposed to various concentrations of the tested compounds followed by incubation at a temperature of 37° C. during 96 hours inside a medium of fresh RMPI 1640. Cells were subsequently incubated at 37° C. using MTT at 0.5 mg/mL during 4 hours. After removal of supernatant, formazan crystals were dissolved in isopropanol and the optical density was measured at 570 nm. CX-4945 was used as a positive control.

[2] = test system: HCT116 (colon); assay: In vitro cytotoxic activity (MTT) assay, HCT116; format: cell-based; conditions: Homo sapiens, HCT-116; HCT116 cells, exposed for 96 hours, 50% inhibition of cell proliferation; read-out: Cytotoxicity activity IC50, HCT116 (colon)
Experimental: as §1

[3] = test system: A375 (melanoma); assay: In vitro cytotoxic activity (MTT) assay, A375; format: cell-based; conditions: Homo sapiens, A-375; A375 cells, exposed for 96 hours, 50% inhibition of cell proliferation; read-out: Cytotoxicity activity IC50, A375 (melanoma)
Experimental: as §1

[4] = test system: H1299 (lung); assay: In vitro cytotoxic activity (MTT) assay, H1299; format: cell-based; conditions: Homo sapiens, NCI-H1299; H1299 cells, exposed for 96 hours, 50% inhibition of cell proliferation; read-out: Cytotoxicity activity IC50, H1299 (lung)
Experimental: as §1

[5] = test system: MIAPaCa-2 (pancreas); assay: In vitro cytotoxic activity (MTT) assay, MIAPaCa-2; format: cell-based; conditions: Homo sapiens, MIA PaCa-2; MIAPaCa-2 cells, exposed for 96 hours, 50% inhibition of cell proliferation; read-out: Cytotoxicity activity IC50, MIAPaCa-2 (pancreas)
Experimental: as §1

[6] = test system: HL60 (leukemia); assay: In vitro cytotoxic activity (MTT) assay, HL60; format: cell-based; conditions: Homo sapiens, HL-60; HL60 cells, exposed for 96 hours, 50% inhibition of cell proliferation; read-out: Cytotoxicity activity IC50, HL60 (leukemia)
Experimental: as §1

[7] = test system: MCF7 (breast); assay: In vitro cytotoxic activity (MTT) assay, MCF7; format: cell-based; conditions: Homo sapiens; MCF7 cells, exposed for 96 hours, 50% inhibition of cell proliferation; read-out: Cytotoxicity activity IC50, MCF7 (breast)
Experimental: as §1

[8] = test system: MDA-MB-231 (breast); assay: In vitro cytotoxic activity (MTT) assay, MDA-MB-231; format: cell-based; conditions: Homo sapiens; MDA-MB-231 cells, exposed for 96 hours, 50% inhibition of cell proliferation; read-out: Cytotoxicity activity IC50, MDA-MB-231 (breast)
Experimental: as §1

[9] = molecular target: T1, recombinant human CK2 (Homo sapiens, UniProt P68400); assay: CK2 Kinase Assay (33P-ATP, substrate peptide RRRDDDSDDD); format: biochemical; conditions: recombinant human CK2 holoenzyme, final ATP concentration 15 μM, 10 min at 30° C.; read-out: protein kinase CK2 IC50
T1 construct: purchased Millipore
T1 sequence (P68400 whole entry): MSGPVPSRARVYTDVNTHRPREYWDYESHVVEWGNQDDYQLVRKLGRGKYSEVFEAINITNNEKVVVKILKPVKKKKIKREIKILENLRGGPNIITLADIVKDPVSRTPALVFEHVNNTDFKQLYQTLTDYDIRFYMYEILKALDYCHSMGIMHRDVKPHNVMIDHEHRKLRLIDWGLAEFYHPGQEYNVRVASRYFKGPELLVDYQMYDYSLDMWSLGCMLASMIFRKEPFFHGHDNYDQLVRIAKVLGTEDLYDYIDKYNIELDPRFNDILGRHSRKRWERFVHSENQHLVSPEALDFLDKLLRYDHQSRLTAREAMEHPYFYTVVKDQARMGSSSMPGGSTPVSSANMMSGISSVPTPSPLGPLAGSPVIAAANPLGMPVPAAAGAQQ
T1 sequence (P67870 whole entry partner): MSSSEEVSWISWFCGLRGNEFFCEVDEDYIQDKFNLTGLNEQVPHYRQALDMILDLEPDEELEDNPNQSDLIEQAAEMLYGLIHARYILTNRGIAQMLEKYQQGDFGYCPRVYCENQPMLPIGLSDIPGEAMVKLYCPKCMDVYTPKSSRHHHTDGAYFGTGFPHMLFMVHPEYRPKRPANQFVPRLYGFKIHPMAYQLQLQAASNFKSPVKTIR
Experimental: CK2 Kinase Assay was conducted using the protocol as described in Pierre F. et al; J. Med. Chem. 2011, 54, 635-654. The tested compounds in aqueous solution were added at a volume of 10 μL to a reaction mixture comprising 10 μL of assay dilution buffer (ADB; 20 mM MOPS, pH 7.2, 25 mM β-glycerol phosphate, 5 mM EGTA, 1 mM sodium orthovanadate, and 1 mM dithiothreitol), 10 μL of substrate peptide (RRRDDDSDDD, dissolved in ADB at a concentration of 1 mM), 10 μL of recombinant human CK2 (RROP-holoenzyme, 25 ng dissolved in ADB; Millipore). Reactions were initiated by the addition of 10 μL of ATP solution (90% 75 mMMgCl2, 75 μM ATP (final ATP concentration: 15 μM) dissolved in ADB; 10% [γ-33P] ATP (stock 1 mCi/100 μL; 3000 Ci/mmol (Perkin-Elmer) and maintained for 10 min at 30° C. The reactions were quenched with 100 μL of 0.75% phosphoric acid and then transferred to and filtered through a phosphor cellulose filter plate (Millipore). After washing each well five times with 0.75% phosphoric acid, the plate was dried under vacuum for 5 min and, following the addition of 15 μL of scintillation fluid to each well, the residual radioactivity was measured using a Wallac […] counter. The IC50 values were derived from eight concentrations of test inhibitors.

Question: Which IC50 [1] does the source give for `O=C(O)c1ncn2c1nc(Nc1cccc(Cl)c1)c1ccncc12` [Compound 1, 5-((3-chlorophenyl)amino)imidazo[1,5-a]pyrido[4,3-e]pyrimidine-3-carboxylic acid] here?
Answer: The IC50 was 1.7 µM.

Question: What about the IC50 [2] of the same molecule?
Answer: Its IC50 is 2 µM.

Question: And the IC50 [3]?
Answer: The IC50 was 3.8 µM.

Question: And the IC50 [4]?
Answer: Its IC50 is 1.9 µM.

Question: What about the IC50 [5] of the same molecule?
Answer: The IC50 was 1.3 µM.

Question: What about the IC50 [6] of the same molecule?
Answer: The IC50 was 3.6 µM.

Question: And the IC50 [7]?
Answer: Its IC50 is 5.4 µM.

Question: What about the IC50 [8] of the same molecule?
Answer: The IC50 was 4.5 µM.

Question: And the IC50 [9]?
Answer: Its IC50 is 0.074 µM.
